# Laboratory results as given in ChEMBL document CHEMBL5233265, “Recent advances in the design and development of formyl peptide receptor 2 (FPR2/ALX) agonists as pro-resolving agents with diverse therapeutic potential” (Eur J Med Chem, 2021).
# Key:
# Assay type in all cases: cell-based; call rule not given here
# [1] = target: T1, N-formyl peptide receptor 2 (Homo sapiens, UniProt P25090); experiment: Agonist activity at human FPR2 expressed in CHO cells assessed as cAMP level incubated for 1.5 hr by HTRF assay
# T1 sequence (P25090 whole entry): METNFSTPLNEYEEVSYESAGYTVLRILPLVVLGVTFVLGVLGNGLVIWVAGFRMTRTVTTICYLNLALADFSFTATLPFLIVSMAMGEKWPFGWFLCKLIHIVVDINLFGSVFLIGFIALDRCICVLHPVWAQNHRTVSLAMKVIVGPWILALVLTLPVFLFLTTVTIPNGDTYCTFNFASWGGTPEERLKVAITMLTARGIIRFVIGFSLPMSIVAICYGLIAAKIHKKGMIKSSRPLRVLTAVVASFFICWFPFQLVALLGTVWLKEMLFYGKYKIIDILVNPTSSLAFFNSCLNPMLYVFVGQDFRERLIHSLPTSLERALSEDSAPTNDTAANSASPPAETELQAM
# [2] = target: T2, fMet-Leu-Phe receptor (Homo sapiens, UniProt P21462); experiment: Agonist activity at human FPR1 expressed in CHO cells assessed as cAMP level incubated for 1.5 hr by HTRF assay
# T2 sequence (P21462 whole entry): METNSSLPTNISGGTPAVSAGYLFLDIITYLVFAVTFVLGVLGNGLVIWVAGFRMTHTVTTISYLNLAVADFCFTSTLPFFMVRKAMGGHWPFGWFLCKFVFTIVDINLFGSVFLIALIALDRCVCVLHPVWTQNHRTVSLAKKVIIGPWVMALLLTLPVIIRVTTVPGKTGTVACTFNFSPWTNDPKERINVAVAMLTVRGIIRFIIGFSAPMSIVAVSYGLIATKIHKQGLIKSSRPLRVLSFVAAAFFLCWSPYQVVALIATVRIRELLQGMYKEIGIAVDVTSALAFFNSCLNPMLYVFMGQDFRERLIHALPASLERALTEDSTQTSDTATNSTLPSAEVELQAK
# [3] = target: T1, N-formyl peptide receptor 2; experiment: Agonist activity at human FPR2 expressed in CHO cells assessed as increase in calcium flux incubated for 50 mins by FLIPR calcium 5 dye based fluorescence assay
# [4] = target: T2, fMet-Leu-Phe receptor; experiment: Agonist activity at human FPR1 expressed in CHO cells assessed as increase in calcium flux incubated for 50 mins by FLIPR calcium 5 dye based fluorescence assay
# [5] = target: T1, N-formyl peptide receptor 2; experiment: Agonist activity at human FPR2 transfected in HL-60 cells assessed as increase in intracellular calcium flux incubated for 30 mins by Fluo-4 AM dye based fluorometer analysis
# [6] = target: T2, fMet-Leu-Phe receptor; experiment: Agonist activity at human FPR1 transfected in HL-60 cells assessed as increase in intracellular calcium flux incubated for 30 mins by Fluo-4 AM dye based fluorometer analysis
# [7] = target: T3, N-formyl peptide receptor 2 (Homo sapiens) (UniProt P25090); experiment: Agonist activity at human FPR2 transfected in HL-60 cells assessed as maximal intracellular calcium flux incubated for 30 mins by Fluo-4 AM dye based fluorometer analysis relative to control; conditions: filed as agonist
# T3 sequence (whole entry): T1 sequence (P25090 whole entry)
# [8] = target: T4, fMet-Leu-Phe receptor (Homo sapiens) (UniProt P21462); experiment: Agonist activity at FPR1 (unknown origin) expressed in CHO/Galpha16 cells assessed as maximal calcium flux at 0.61 to 10000 nM by FLIPR assay relative to control; conditions: dose 0.61-10000 nM
# T4 sequence (whole entry): T2 sequence (P21462 whole entry)
# [9] = target: T3, N-formyl peptide receptor 2 (Homo sapiens); experiment: Agonist activity at FPR2 (unknown origin) expressed in CHO/Galpha16 cells assessed as maximal calcium flux at 0.61 to 10000 nM by FLIPR assay relative to control; conditions: dose 0.61-10000 nM
# [10] = organism: Homo sapiens; experiment: Selectivity index, ratio of EC50 for agonist activity at FPR2 (unknown origin) expressed in CHO/Galpha16 cells to EC50 for FPR1 (unknown origin) expressed in CHO/Galpha16 cells
compound,measurement,setting,value
COc1cc(F)c([C@@H]2CN(CC3CC3)C(=O)[C@H]2NC(=O)NC2(c3cccc(C)n3)CC2)c(F)c1,EC50,[1],< 0.01 µM
same,EC50,[2]; cho,Not Active
COc1ccc([C@H]2CCNC(=O)[C@@H]2NC(=O)Nc2ccc(Cl)cc2)cc1,EC50,[3],< 0.001 µM
COc1ccc([C@H]2CCN(c3ccnnc3)C[C@@H]2NC(=O)Nc2ccc(Cl)cc2)cc1 (relative stereo),EC50,[4],0.001 µM
same,EC50,[3],0.001 µM
O=C(Nc1ccc(C(F)(F)F)cc1)N[C@@H]1CCCN(c2ccc(N3CC4(COC4)C3)cc2)C1=O,EC50,[1],0.01 µM
N#Cc1ccc(C[C@H](NC(=O)Nc2ccc(O)cc2)C(=O)NCC2(c3ccccc3)CC2)cc1,EC50,[5]; hl-60,Not Active
same,EC50,[6]; hl-60,Not Active
O=C(Nc1ccc(C(F)(F)F)cc1)NC1CCCN(c2ccc(-c3ccccc3F)cc2)C1=O (racemic),EC50,[1],< 0.005 µM
COc1ccc([C@H]2CCN(Cc3cccnc3)C(=O)[C@@H]2NC(=O)Nc2ccc(F)cc2)cc1 (relative stereo),EC50,[4],0.001 µM
same,EC50,[3],0.001 µM
COc1ccc(NC(=O)N[C@H](Cc2ccc(C#N)cc2)C(=O)NCC2(c3ccc(O)cc3)CC2)cc1,EC50,[5]; read-out: EC50,7 µM
same,EC50,[6]; hl-60,Not Active
same,Emax,[7],70%
N#Cc1ccc(C[C@@H](NC(=O)Nc2ccc(O)cc2)C(=O)NCC2(c3ccccc3)CC2)cc1,EC50,[5]; hl-60,Not Active
same,EC50,[6]; hl-60,Not Active
COc1cc(F)c([C@@H]2CNC(=O)[C@H]2Nc2nnc(-c3ccc(Cl)cc3)s2)c(F)c1,EC50,[1],< 0.04 µM
same,EC50,[2]; cho,Not Active
CC(C)C(C(=O)O)C(C)NC(=O)Nc1ccc(Br)cc1 (stereo in doubt; 21),Emax,[8],93%
NC(=O)c1ccccc1-c1ccc(N2CCCC(NC(=O)Nc3ccc(C(F)(F)F)cc3)C2=O)cc1 (racemic),EC50,[1],0.04 µM
O=C(Nc1ccccc1F)N[C@@H]1CCCN(c2ccc(-c3ccccc3F)cc2)C1=O,EC50,[1],0.04 µM
O=C(Nc1ccc(C(F)(F)F)cc1)N[C@@H]1CCCN(c2ccc(-c3ccccc3F)cc2)C1=O,EC50,[1],< 0.005 µM
CC(C)C(C(=O)O)C(C)NC(=O)Nc1ccc(Br)cc1 (stereo in doubt; 20),Emax,[8],91%
same,Emax,[9],75%
same,Ratio EC50,[10],101
Cc1cccc(C2(NC(=O)N[C@@H]3C(=O)NC[C@H]3c3c(F)cc(Cl)cc3F)CC2)n1,EC50,[1],0.1 µM
same,EC50,[2]; cho,Not Active
CP(C)(=O)c1ccccc1-c1ccc(N2CC[C@@H](NC(=O)Nc3ccc(Cl)cc3)C2=O)c(F)c1F,EC50,[1],0.025 µM
CS(=O)(=O)Nc1ccccc1-c1ccc(N2CCC[C@@H](NC(=O)Nc3ccc(C(F)(F)F)nc3)C2=O)cc1,EC50,[1],< 0.005 µM
same,EC50,[2]; cho,Not Active
COc1cc(F)c([C@H]2CCN(CCC(F)F)C[C@@H]2NC(=O)Nc2ccc(Cl)cc2)c(F)c1 (relative stereo; form 2),EC50,[4]; cho,0.001 µM
same,EC50,[3],< 0.001 µM
CC(C)C(C(=O)O)C(C)NC(=O)Nc1ccc(Br)cc1 (stereo in doubt; 18),Emax,[8],94%
same,Emax,[9],89%
same,Ratio EC50,[10],17
CC(C)C[C@H](NC(=O)CNC(=O)Nc1ccc(Br)cc1)C(=O)O,Emax,[8],100%
same,Emax,[9],91%
same,Ratio EC50,[10],386
COc1cc(F)c([C@@H]2CNC(=O)[C@H]2NC(=O)NC2(c3cccc(C)n3)CC2)c(F)c1,EC50,[1],< 0.01 µM
same,EC50,[2]; cho,Not Active
NC(=O)c1ccccc1-c1ccc(N2CCC[C@H](NC(=O)Nc3ccc(C(F)(F)F)cc3)C2=O)cc1,EC50,[1],0.04 µM
O=C(Nc1ccc(C(F)(F)F)cc1)N[C@@H]1CCCN(c2ccc(N3CCOCC3)cc2)C1=O,EC50,[1],< 0.01 µM
NC(=O)c1ccccc1-c1ccc(N2CCC[C@@H](NC(=O)Nc3ccc(Cl)cc3)C2=O)cc1,EC50,[1],< 0.005 µM
CC(C)C[C@H](NC(=O)CCNC(=O)Nc1ccc(Br)cc1)C(=O)O,Emax,[8],99%
same,Emax,[9],81%
same,Ratio EC50,[10],74
COc1ccc([C@H]2CCN(Cc3ccccn3)C(=O)[C@@H]2NC(=O)Nc2ccc(F)cc2)cc1 (relative stereo),EC50,[4],0.001 µM
same,EC50,[3],< 0.001 µM
CC(=O)N1CCN(c2ccc(N3CCC[C@@H](NC(=O)Nc4ccc(C(F)(F)F)cc4)C3=O)cc2)CC1,EC50,[1],0.1 µM
CP(C)(=O)c1ccccc1-c1ccc(N2CC3(CC3)[C@@H](NC(=O)Nc3ccc(Cl)cc3F)C2=O)c(F)c1F,EC50,[2]; read-out: EC50,> 5 µM
CCC[C@H](NC(=O)CNC(=O)Nc1ccc(Br)cc1)C(=O)O,Emax,[8],98%
same,Emax,[9],105%
same,Ratio EC50,[10],62
Cc1cnc(NC(=O)N[C@@H]2CCCN(c3ccc(-c4ccccc4NS(C)(=O)=O)cc3F)C2=O)cn1,EC50,[1],0.022 µM
same,EC50,[2]; read-out: EC50,2 µM
COc1ccc(NC(=O)N[C@@H](Cc2ccc(C#N)cc2)C(=O)NCC2(c3cccc(O)c3)CC2)cc1,EC50,[5]; read-out: EC50,0.18 µM
same,EC50,[6]; read-out: EC50,1.4 µM
same,Emax,[7],115%
O=C(Nc1ccc(C(F)(F)F)cc1)N[C@H]1CCCN(c2ccc(-c3ccccc3C(=O)O)cc2)C1=O,EC50,[1],0.04 µM
CS(=O)(=O)Nc1ccccc1-c1ccc(N2CCC[C@@H](NC(=O)Nc3cnc(Cl)cn3)C2=O)cc1,EC50,[1],< 0.005 µM
same,EC50,[2]; cho,Not Active
COc1cc(F)c([C@H]2CCN(CC3CC3)C(=O)[C@@H]2NC(=O)Nc2ccc(Cl)cc2)c(F)c1,EC50,[4],0.001 µM
same,EC50,[3],< 0.001 µM
O=C(Nc1ccc(C(F)(F)F)cc1)N[C@@H]1CCCN(c2ccc(-c3ccccc3C(=O)O)cc2)C1=O,EC50,[1],0.005 µM
COc1ccc([C@@H]2CCN(Cc3ccccn3)C(=O)[C@@H]2NC(=O)Nc2ccc(F)cc2)cc1 (relative stereo),EC50,[4],0.001 µM
same,EC50,[3],0.001 µM
CC1(C)CN(c2ccc(-c3ccccc3P(C)(C)=O)c(F)c2F)C(=O)[C@@H]1NC(=O)Nc1cnc(Cl)cn1,EC50,[1],0.057 µM
O=C(CNC(=O)Nc1ccc(Br)cc1)N[C@@H](Cc1ccccc1)C(=O)O,Emax,[8],97%
same,Emax,[9],197%
same,Ratio EC50,[10],24
COc1cc(F)c([C@H]2CCN(CCC(F)F)C[C@@H]2NC(=O)Nc2ccc(Cl)cc2)c(F)c1 (relative stereo; form 1),EC50,[4],0.001 µM
same,EC50,[3],0.001 µM
CS(=O)(=O)NCC1(c2ccc(N3CCC[C@@H](NC(=O)Nc4ccc(C(F)(F)F)nc4)C3=O)cc2)CCCC1,EC50,[1],< 0.1 µM
same,EC50,[2]; cho,Not Active
Cc1cccc(C2(NC(=O)N[C@@H]3C(=O)NC[C@H]3c3c(F)cc(Br)cc3F)CC2)n1,EC50,[1],0.01 µM
same,EC50,[2]; cho,Not Active
CC(C)C(C(=O)O)C(C)NC(=O)Nc1ccc(Br)cc1 (stereo in doubt; 19),Emax,[8],103%
same,Emax,[9],56%
same,Ratio EC50,[10],249
O=C(Nc1ccc(C(F)(F)F)cc1)N[C@H]1CCCN(c2ccc(-c3ccccc3F)cc2)C1=O,EC50,[1],0.04 µM
CP(C)(=O)c1ccccc1-c1ccc(N2CC[C@@H](NC(=O)Nc3csc(Cl)c3)C2=O)c(F)c1F,EC50,[1],0.0029 µM
CN1CCN(c2ccc(N3CCC[C@@H](NC(=O)Nc4ccc(C(F)(F)F)cc4)C3=O)cc2)CC1,EC50,[1],0.01 µM
NC(=O)c1ccccc1-c1ccc(N2CCC[C@@H](NC(=O)Nc3ccc(C(F)(F)F)cc3)C2=O)cc1,EC50,[1],< 0.005 µM
